From US9266869B2, “Substituted dialkyl(oxido)-lambda4-sulfanylidene nicotinamide derivatives as kinase inhibitors” (Allergan, Inc., priority 2013, dated 2016)

Legend:
VEGFR2 (KDR) = VEGFR2 (KDR) (Homo sapiens (Human), UniProt P35968); assay: VEGFR2 Kinase Assay; assay type: biochemical; details: purified cytoplasmic domain KDR protein, 2.7 μM ATP; read-out: VEGFR2 Enzyme Assay (IC50 nM)
Method: VEGFR2 Kinase Assay Biochemical KDR kinase assays were performed in 96 well microtiter plates that were coated overnight with 75 μg/well of poly-Glu-[…]:1) in 10 mM Phosphate Buffered Saline (PBS), pH 7.4. […] Reactions were carried out in 100 μL reaction volumes containing 2.7 μM ATP in kinase buffer (50 mM Hepes buffer pH 7.4, 20 mM MgCl2, 0.1 mM MnCl2 and 0.2 mM Na3VO4). […] Reactions were initiated by the addition 20 ul per well of kinase buffer containing 200-300 ng purified cytoplasmic domain KDR protein (BPS Bioscience, San Diego, Calif.). Following a 15 minute incubation at 30° C., the reactions were washed 2 mls per well PBS-T. 100 μl of a monoclonal anti-phosphotyrosine antibody-peroxidase conjugate diluted 1:10,000 in PBS-T was added to the wells for 30 minutes. Following a 2 mls per well wash with PBS-Tween-20, 100 μl of 0-Phenylenediamine Dihydrochloride in phosphate-citrate buffer, containing urea hydrogen peroxide, was added to the wells for 7-10 minutes as a colorimetric substrate for the peroxidase. […] IC50 values for compound inhibition were calculated directly from graphs of optical density (arbitrary units) versus compound concentration following subtraction of blank values.

VEGFR2 = VEGFR2 (Homo sapiens (Human), UniProt P35968); assay: VEGFR2 Cellular Assay (VEGF induced intracellular calcium, FLIPR, HUVEC); assay type: cell-based; details: VEGF165 stimulation (10 ng/mL)
Method: (§1) VEGFR2 Cellular Assay Automated FLIPR (Fluorometric Imaging Plate Reader) technology was used to screen for inhibitors of VEGF induced increases in intracellular calcium levels in fluorescent dye loaded endothelial cells. HUVEC (human umbilical vein endothelial cells) (Clonetics) were seeded in 384-well fibronectin coated black-walled plates overnight @ 37° C./5% CO2. Cells were loaded with calcium indicator Fluo-4 for 45 minutes at 37° C. Cells were washed 2 times (Elx405, Biotek Instruments) to remove extracellular dye. For screening, cells were pre-incubated with test agents for 30 minutes, at a single concentration (10 uM) or at concentrations ranging from 0.0001 to 10.0 uM followed by VEGF165 stimulation (10 ng/mL). Changes in fluorescence at 516 nm were measured simultaneously in all 384 wells using a cooled CCD camera. Data were generated by determining max-min fluorescence levels for unstimulated, stimulated, and drug treated samples. IC50 values for test compounds were calculated from % inhibition of VEGF stimulated responses in the absence of inhibitor.

PDGFRβ [1] = target: T1, PDGFRβ (Homo sapiens (Human), UniProt P09619); assay: PDGFRβ Cellular Assay (PDGF-induced intracellular calcium, FLIPR, NHDF-Ad); assay type: cell-based; details: PDGF-BB stimulation (30 ng/mL)
Method: as §1, with “Automated” for “VEGFR2 Cellular Assay Automated”, “of PDGF-induced” for “of VEGF induced”, “[…]. NHDF-Ad (Normal Human Dermal Fibroblasts, Adult; Lonza)” for “cells. HUVEC (human umbilical vein endothelial cells) (Clonetics)”, “by PDGF-BB” for “by VEGF165”, “stimulation (30” for “stimulation (10”, “of PDGF-BB” for “of VEGF”
Target sequence in this assay (P09619 33-1106): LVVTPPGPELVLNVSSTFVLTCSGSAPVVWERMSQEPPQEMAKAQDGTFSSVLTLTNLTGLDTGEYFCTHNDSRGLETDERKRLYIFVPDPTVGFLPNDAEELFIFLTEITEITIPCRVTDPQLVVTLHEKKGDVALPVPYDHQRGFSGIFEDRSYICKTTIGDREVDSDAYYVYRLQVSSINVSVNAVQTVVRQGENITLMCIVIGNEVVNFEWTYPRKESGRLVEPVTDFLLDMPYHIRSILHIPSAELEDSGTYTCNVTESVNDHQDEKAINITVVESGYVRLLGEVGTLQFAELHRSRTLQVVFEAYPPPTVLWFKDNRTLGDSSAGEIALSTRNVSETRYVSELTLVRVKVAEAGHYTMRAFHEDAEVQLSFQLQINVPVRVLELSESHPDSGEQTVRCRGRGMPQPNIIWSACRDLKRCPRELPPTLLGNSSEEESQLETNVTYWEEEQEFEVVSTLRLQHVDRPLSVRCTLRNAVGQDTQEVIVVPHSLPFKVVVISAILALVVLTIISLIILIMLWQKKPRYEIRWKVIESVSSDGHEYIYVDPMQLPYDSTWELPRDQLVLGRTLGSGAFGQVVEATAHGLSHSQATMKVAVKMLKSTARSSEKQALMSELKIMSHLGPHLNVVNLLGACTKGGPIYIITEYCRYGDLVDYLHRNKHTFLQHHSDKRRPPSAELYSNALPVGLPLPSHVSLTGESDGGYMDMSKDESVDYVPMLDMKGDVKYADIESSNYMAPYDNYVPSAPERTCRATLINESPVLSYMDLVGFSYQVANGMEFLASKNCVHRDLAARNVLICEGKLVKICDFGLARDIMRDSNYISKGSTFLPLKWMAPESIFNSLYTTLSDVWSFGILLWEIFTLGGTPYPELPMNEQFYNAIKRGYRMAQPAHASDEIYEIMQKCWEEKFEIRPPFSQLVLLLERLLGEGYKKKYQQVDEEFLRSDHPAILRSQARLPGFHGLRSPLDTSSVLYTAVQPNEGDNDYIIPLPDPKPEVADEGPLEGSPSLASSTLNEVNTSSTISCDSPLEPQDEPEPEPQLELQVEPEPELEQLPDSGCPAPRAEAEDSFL

PDGFRβ [2] = target: T1, PDGFRβ; assay: PDGFRβ Kinase Assay; assay type: biochemical; details: purified cytoplasmic domain PDGFR-b protein, 36 μM ATP; read-out: PDGFRβ Enzyme Assay (IC50 nM)
Method: Biochemical PDGFRβ kinase assays were performed in 96 well microtiter plates that were coated overnight with 75 μg of poly-Glu-Tyr (4:1) in 10 mM Phosphate Buffered Saline (PBS), pH 7.4.
PBS-T prior to starting the reaction. Reactions were carried out in 100 μL reaction volumes containing 36 μM ATP in kinase buffer (50 mM Hepes buffer pH 7.4, 20 mM MgCl2, 0.1 mM MnCl2 and 0.2 mM Na3VO4). […] Reactions were initiated by the addition 20 ul per well of kinase buffer containing 200-300 ng purified cytoplasmic domain PDGFR-b protein (Millipore). Following a 60 minute incubation at 30° C., the reactions were washed 2 mls per well PBS-T. 100 μl of a monoclonal anti-phosphotyrosine antibody-peroxidase conjugate diluted 1:10,000 in PBS-T was added to the wells for 30 minutes. Following a 2 mls per well wash with PBS-Tween-20, 100 μl of O-Phenylenediamine Dihydrochloride in phosphate-citrate buffer, containing urea hydrogen peroxide, was added to the wells for 7-10 minutes as a colorimetric substrate for the peroxidase. […] IC50 values for compound inhibition were calculated directly from graphs of optical density (arbitrary units) versus compound concentration following subtraction of blank values.
Target sequence in this assay (P09619 554-1106): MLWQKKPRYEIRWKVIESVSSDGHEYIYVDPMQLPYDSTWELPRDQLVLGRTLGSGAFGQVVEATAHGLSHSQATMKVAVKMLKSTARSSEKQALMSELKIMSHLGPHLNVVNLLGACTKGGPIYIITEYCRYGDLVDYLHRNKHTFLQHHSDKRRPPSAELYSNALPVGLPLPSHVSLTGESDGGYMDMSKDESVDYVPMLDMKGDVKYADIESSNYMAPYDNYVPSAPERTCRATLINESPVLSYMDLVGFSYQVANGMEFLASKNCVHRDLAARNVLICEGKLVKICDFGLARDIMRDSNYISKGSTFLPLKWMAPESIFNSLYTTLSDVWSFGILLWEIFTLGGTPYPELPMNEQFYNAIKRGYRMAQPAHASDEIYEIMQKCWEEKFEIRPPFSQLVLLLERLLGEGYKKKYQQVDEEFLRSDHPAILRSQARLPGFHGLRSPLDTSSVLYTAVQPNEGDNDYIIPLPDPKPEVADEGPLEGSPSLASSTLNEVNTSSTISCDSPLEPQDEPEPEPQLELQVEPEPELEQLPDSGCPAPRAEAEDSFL

VEGF permeability model = assay: VEGF permeability model, intravitreal injection; assay type: in vivo; details: dosed by intravitreal injection

Sequence of VEGFR2 (P35968 20-1356): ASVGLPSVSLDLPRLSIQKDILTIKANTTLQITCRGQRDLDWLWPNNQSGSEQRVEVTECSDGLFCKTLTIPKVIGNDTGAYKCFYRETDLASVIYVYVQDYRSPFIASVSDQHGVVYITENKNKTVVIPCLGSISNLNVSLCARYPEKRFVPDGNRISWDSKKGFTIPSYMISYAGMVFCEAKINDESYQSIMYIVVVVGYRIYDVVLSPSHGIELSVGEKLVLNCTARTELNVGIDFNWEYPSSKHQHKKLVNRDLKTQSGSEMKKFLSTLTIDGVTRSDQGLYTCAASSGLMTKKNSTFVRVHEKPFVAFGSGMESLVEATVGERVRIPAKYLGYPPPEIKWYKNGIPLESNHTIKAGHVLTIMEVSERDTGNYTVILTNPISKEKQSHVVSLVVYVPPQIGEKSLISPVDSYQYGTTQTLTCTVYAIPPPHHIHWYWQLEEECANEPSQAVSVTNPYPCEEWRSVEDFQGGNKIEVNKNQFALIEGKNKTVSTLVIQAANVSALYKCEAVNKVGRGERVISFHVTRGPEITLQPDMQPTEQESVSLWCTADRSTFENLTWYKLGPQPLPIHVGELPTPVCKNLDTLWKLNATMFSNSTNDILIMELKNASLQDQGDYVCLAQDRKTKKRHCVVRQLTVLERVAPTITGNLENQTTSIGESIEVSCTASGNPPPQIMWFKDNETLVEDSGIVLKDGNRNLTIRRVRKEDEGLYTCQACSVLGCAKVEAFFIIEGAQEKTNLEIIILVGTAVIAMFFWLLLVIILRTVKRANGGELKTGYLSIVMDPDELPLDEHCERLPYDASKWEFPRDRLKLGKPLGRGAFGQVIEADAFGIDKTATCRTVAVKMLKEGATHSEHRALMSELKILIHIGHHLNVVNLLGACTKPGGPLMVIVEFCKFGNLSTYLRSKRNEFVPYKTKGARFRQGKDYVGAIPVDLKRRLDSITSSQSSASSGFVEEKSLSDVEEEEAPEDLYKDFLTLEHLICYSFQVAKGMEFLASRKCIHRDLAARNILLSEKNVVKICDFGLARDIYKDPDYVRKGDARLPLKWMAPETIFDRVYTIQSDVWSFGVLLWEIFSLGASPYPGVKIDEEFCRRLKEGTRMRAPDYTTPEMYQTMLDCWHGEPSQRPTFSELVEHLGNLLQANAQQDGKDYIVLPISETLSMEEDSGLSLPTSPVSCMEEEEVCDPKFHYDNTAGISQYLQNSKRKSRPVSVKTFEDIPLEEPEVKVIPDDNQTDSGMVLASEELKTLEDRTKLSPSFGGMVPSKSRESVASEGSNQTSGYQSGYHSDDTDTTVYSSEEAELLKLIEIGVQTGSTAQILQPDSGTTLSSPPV
Sequence of VEGFR2 (KDR) (P35968 786-1356): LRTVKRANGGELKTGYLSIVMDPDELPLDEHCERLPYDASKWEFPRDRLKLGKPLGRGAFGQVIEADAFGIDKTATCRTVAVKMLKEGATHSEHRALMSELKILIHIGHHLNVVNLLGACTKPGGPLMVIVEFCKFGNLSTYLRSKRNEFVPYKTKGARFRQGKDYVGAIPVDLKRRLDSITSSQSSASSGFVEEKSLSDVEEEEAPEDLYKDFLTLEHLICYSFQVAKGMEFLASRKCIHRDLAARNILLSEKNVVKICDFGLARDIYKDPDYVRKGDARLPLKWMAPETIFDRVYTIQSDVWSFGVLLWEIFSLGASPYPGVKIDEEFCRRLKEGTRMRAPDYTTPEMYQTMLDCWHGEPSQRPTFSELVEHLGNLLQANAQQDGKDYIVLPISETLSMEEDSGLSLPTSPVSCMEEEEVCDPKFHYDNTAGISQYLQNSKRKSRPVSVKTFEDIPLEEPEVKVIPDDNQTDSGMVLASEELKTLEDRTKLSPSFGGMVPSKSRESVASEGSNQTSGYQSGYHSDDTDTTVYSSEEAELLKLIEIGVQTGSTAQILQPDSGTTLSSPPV

IC50 (VEGFR2 (KDR)): 4 nM
IC50 (VEGFR2): 1 nM
IC50 (PDGFRβ [1]): 10 nM
IC50 (PDGFRβ [2]): 11 nM
in vivo efficacy in the VEGF permeability model (VEGF permeability model): good in vivo efficacy
Structure (SMILES): COC(=O)CCCCS(C)(=O)=NC(=O)c1cnc(N)c(C#Cc2cccc(NC(=O)c3cccc(C)c3)c2)c1 (centres unmarked) [Example 26, Methyl 5-(N-{[6-amino-5-({3-[(3-methylbenzoyl)amino]phenyl}ethynyl)pyridin-3-yl]carbonyl}-S-methylsulfonimidoyl)pentanoate]
